For test [1], the system named is HeLa. Nature of the test: Compound was tested for tumor cell growth inhibition against HeLa cell line. Type of test: functional. Conditions: Homo sapiens, read-out: ID50 (the source's name).
Test [2] relates to HL-60. Nature of the test: Compound was tested for tumor cell growth inhibition against HL 60 cell line. The format is functional. As to conditions: Homo sapiens, read-out: ID50 (the source's name).

On to `CCN(CC)CCC(=O)Nc1ccc(NC(=O)CCN(CC)CC)c2c1C(=O)c1c(O)ccc(O)c1C2=O`, for which the figures for the IC50 in test [1] and in test [2] were 3.14 µM and 100 nM, respectively.

`CCN(CC)CC(=O)Nc1ccc(NC(=O)CN(CC)CC)c2c1C(=O)c1c(O)ccc(O)c1C2=O`: the IC50 in test [1] is more than 38 µM; in test [2], 4900 nM.

Consider `O=C1c2c(O)ccc(O)c2C(=O)c2c(NCCNCCO)ccc(NCCNCCO)c21` [MITOXANTRONE], for which the IC50 in test [1] was 2.77 µM; in test [2], 90 nM.

Take `CCN(CC)CC(=O)Nc1ccc(O)c2c1C(=O)c1c(O)ccc(O)c1C2=O`: the figures for the IC50 in test [1] and in test [2] were 26.1 µM and 1640 nM, respectively.

On to `CCN(CC)CCC(=O)Nc1ccc(O)c2c1C(=O)c1c(O)ccc(O)c1C2=O`, for which the figures for the IC50 in test [1] and in test [2] were 8.05 µM and 110 nM, respectively.
